Source: patent publication US6864251B2, “Treatment of LTB4-mediated inflammatory disorders with optically-pure (R)-2,3-benzodiazepines” (Vela Pharmaceuticals, Inc., priority 2002, dated 2005)

How the values were obtained:
LTB4 receptor = LTB4 receptor (Cavia porcellus, UniProt H0VYV8); test: LTB4 binding assay, displacement of [3H]LTB4, guinea pig spleen membrane
Experimental: Reactions were carried out in a phosphate buffer (pH 7.4) containing NaCl, MgCl2, EDTA, and bacitracin. The reaction volume of 150 μL containing 1.0 mg/mL of the Guinea pig spleen membrane preparation and 1 nM [^3H]LTB4, with or without a competitor, was incubated at 0-4° C. for 2 hours. Competitors included 2,3-benzodiazepines, and LTB4 as a control. The reaction was terminated by rapid vacuum filtration onto glass fiber filters. The filter was washed with cold buffer, dried and placed in a scintillation vial. Radioactivity trapped onto the filters was determined and compared to control values in order to ascertain any interactions of the test compound with the LTB4 binding site.

DSS-induced colitis = test: Dextran sulfate sodium induced colitis: mouse model of inflammatory bowel disease; format: in vivo, Swiss Webster mice; details: for Mean colon length CM ± SEM / Mean weight ± SEM, Day 0 / % weight change ± SEM, Day 8 / Mean weight ± SEM, Day 8 / % weight change ± SEM, Day 9 / Mean weight ± SEM, Day 9 / % weight change ± SEM, Day 10 / Mean weight ± SEM, Day 10 / Mean DAI* ± SEM / inhibition at 16 mg/kg / inhibition at 32 mg/kg / inhibition at 64 mg/kg / % of normal length: DSS 5%; for Mean DAI ± SEM: DSS 5% in tap water; for Mean DAI* ± SEM: DAI without weight loss parameter; for inhibition at 16 mg/kg / inhibition at 32 mg/kg / inhibition at 64 mg/kg: Mus musculus, read-out: Colon shortening inhib. %; for % of normal length: colon length
Experimental: In this model of colitis, an acute inflammation of the colon was produced by administration of dextran sulfate sodium (DSS) as a 5% solution in tap water. This colitis was characterized by histological events and an influx of neutrophils, macrophages and mediators of inflammation similar to those observed with human inflammatory bowel diseases. […] The following study was conducted in accordance with protocols of Okayasu et al., Gastroenterology, 98:694-702, 1990.
One hundred ten test animals (female, 6 week old Swiss Webster mice, 18-30 g) were divided into ten groups, selected to eliminate any statistical differences in mean group weight.
Each animal was dosed daily (IP) with either a test substance or vehicle, starting on Day 0. Beginning on Day 1, acute colon inflammation was induced by the administration ad libitum in drinking water of dextran sulfate sodium (DSS) as a 5% solution in tap water (10 mL/mouse/day for 5-6 days), with no other fluid source for animals in the DSS arm of the study. Filtered tap water was available ad libitum except for animals receiving 5% DSS as the sole source of fluid. After four days, signs of acute disease occured with the loss of weight, diarrhea and bloody stools. Histological changes included initial shortening of the crypts, then areas of separation of the crypts and the muscularis mucosae in the absence of destructive inflammatory filtrate. After five days, pathological changes became confluent with the appearance of erosions and early hyperplastic epithelium. Inflammation scores were high with neutrophils, lymphocytes, and plasma cells in the lamina propria but sparing the epithelium.
Test compounds were administered intraperitoneally (IP). Test compounds given during this period were evaluated for prophylactic activity and test compounds given after the disease state was established were evaluated for therapeutic activity.
Test animals were weighed daily from Day 0 to Day 8, or until completion of the study. The total duration of the study with DSS arm of the study was varied depending on the time progress of colitis. The condition of the test animals and consistency of stools was noted.
At the conclusion of the study, test animals were euthanized (CO2), a midline incision was made and a stool sample was obtained. The sample was placed on a slide and tested for occult blood (Quic-Cult™, Laboratory Diagnostics Co., Morganville, N.J.). Occult blood was determined by placing two drops of the reagent onto the sample and observing any color change. Occult blood presence was graded using a scoring protocol assigning a score of 0 for no color; 1 for a very light blue color (+/−) forming in >30 seconds; 2 for a blue color developing in 30 seconds or more (+); 3 for a change in color occurring in less than 30 seconds (++); and 4 for gross blood observable on the slide. The colon was gently stretched and the length from the colon-cecal junction to the end of the distal rectum was measured to the nearest 0.1 cm.
The scores for each test animal were added and then divided by three to give a DAI score for each animal.

Chain of LTB4 receptor (H0VYV8 1-348): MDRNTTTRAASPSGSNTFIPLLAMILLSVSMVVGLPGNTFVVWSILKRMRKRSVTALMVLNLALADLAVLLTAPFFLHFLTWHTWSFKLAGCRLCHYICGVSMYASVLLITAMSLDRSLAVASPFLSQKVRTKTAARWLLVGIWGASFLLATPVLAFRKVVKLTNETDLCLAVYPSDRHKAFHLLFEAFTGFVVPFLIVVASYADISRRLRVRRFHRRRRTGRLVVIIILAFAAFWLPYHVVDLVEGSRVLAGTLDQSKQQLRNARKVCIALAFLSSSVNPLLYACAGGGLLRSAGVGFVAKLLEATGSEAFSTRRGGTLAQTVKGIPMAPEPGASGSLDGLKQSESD

## CCC1C(C)=NN=C(c2ccc(OC)c(OC)c2)c2cc(OC)c(OC)cc21 (racemic) [Racemic tofisopam, Racemic-1-(3,4-dimethoxyphenyl)-4-methyl-5-ethyl-7,8-dimethoxy-5H-2,3-benzodiazepine]
LTB4 receptor
  Ki: 4.52 µM
DSS-induced colitis; 16 mg/kg IP daily
  Mean colon length CM ± SEM: 8.2 ± 0.32 CM
  Mean DAI ± SEM: 2.59 ± 0.27
  Mean weight ± SEM, Day 0: 25.9 ± 0.4 g
  % weight change ± SEM, Day 8: 3.1 ± 1.5%
  Mean weight ± SEM, Day 8: 25.1 ± 0.6 g
  % weight change ± SEM, Day 9: 7.4 ± 2.5%
  Mean weight ± SEM, Day 9: 24.0 ± 0.8 g
  % weight change ± SEM, Day 10: 13.3 ± 3.1%
  Mean weight ± SEM, Day 10: 22.5 ± 1.0 g
  Mean DAI* ± SEM: 2.61 ± 0.30
  inhibition at 16 mg/kg: 7%
  % of normal length: 65.4%
DSS-induced colitis; 32 mg/kg IP daily
  Mean colon length CM ± SEM: 8.3 ± 0.11 CM
  Mean DAI ± SEM: 2.37 ± 0.33
  Mean weight ± SEM, Day 0: 26.1 ± 0.4 g
  % weight change ± SEM, Day 8: 1.8 ± 1.5%
  Mean weight ± SEM, Day 8: 25.6 ± 0.4 g
  % weight change ± SEM, Day 9: 5.3 ± 2.0%
  Mean weight ± SEM, Day 9: 24.7 ± 0.6 g
  % weight change ± SEM, Day 10: 8.0 ± 2.4%
  Mean weight ± SEM, Day 10: 24.0 ± 0.7 g
  Mean DAI* ± SEM: 2.65 ± 0.28
  inhibition at 32 mg/kg: 9%
  % of normal length: 66.7%
DSS-induced colitis; 64 mg/kg IP daily
  Mean colon length CM ± SEM: 8.2 ± 0.18 CM
  Mean DAI ± SEM: 2.87 ± 0.31
  Mean weight ± SEM, Day 0: 25.8 ± 0.3 g
  % weight change ± SEM, Day 8: 1.2 ± 2.1%
  Mean weight ± SEM, Day 8: 25.5 ± 0.7 g
  % weight change ± SEM, Day 9: 5.1 ± 2.5%
  Mean weight ± SEM, Day 9: 24.5 ± 0.8 g
  % weight change ± SEM, Day 10: 8.9 ± 3.1%
  Mean weight ± SEM, Day 10: 23.5 ± 0.9 g
  Mean DAI* ± SEM: 3.25 ± 0.26
  inhibition at 64 mg/kg: 7%
  % of normal length: 65.5%

## CC[C@H]1C(C)=NN=C(c2ccc(OC)c(OC)c2)c2cc(OC)c(OC)cc21 [(R)-tofisopam, (R)-1-(3,4-dimethoxyphenyl)-4-methyl-5-ethyl-7,8-dimethoxy-5H-2,3-benzodiazepine]
LTB4 receptor
  Ki: 0.444 µM
DSS-induced colitis; 16 mg/kg IP daily
  Mean colon length CM ± SEM: 9.0 ± 0.28 CM
  Mean DAI ± SEM: 2.22 ± 0.34
  Mean weight ± SEM, Day 0: 26.1 ± 0.5 g
  % weight change ± SEM, Day 8: 0.0 ± 1.4%
  Mean weight ± SEM, Day 8: 26.1 ± 0.6 g
  % weight change ± SEM, Day 9: 3.3 ± 1.8%
  Mean weight ± SEM, Day 9: 25.2 ± 0.6 g
  % weight change ± SEM, Day 10: 5.4 ± 3.4%
  Mean weight ± SEM, Day 10: 24.7 ± 1.0 g
  Mean DAI* ± SEM: 2.61 ± 0.37
  inhibition at 16 mg/kg: 24%
  % of normal length: 72.4%
DSS-induced colitis; 32 mg/kg IP daily
  Mean colon length CM ± SEM: 8.9 ± 0.41 CM
  Mean DAI ± SEM: 2.33 ± 0.28
  Mean weight ± SEM, Day 0: 25.0 ± 0.4 g
  % weight change ± SEM, Day 8: 0.8 ± 1.6%
  Mean weight ± SEM, Day 8: 26.2 ± 0.4 g
  % weight change ± SEM, Day 9: 1.9 ± 2.1%
  Mean weight ± SEM, Day 9: 25.5 ± 0.6 g
  % weight change ± SEM, Day 10: 4.4 ± 2.1%
  Mean weight ± SEM, Day 10: 24.6 ± 0.6 g
  Mean DAI* ± SEM: 2.75 ± 0.26
  inhibition at 32 mg/kg: 22%
  % of normal length: 71.3%
DSS-induced colitis; 64 mg per kg, based on colon length and DAI
  Protection from the LTB4-mediated inflammatory responses to DSS-induced colitis: significant protection
DSS-induced colitis; 64 mg/kg IP daily
  Mean colon length CM ± SEM: 9.8 ± 0.35 CM
  Mean DAI ± SEM: 1.73 ± 0.27^1
  Mean weight ± SEM, Day 0: 26.2 ± 0.5 g
  % weight change ± SEM, Day 8: 0.1 ± 1.9%
  Mean weight ± SEM, Day 8: 26.2 ± 0.5 g
  % weight change ± SEM, Day 9: 2.9 ± 1.9%
  Mean weight ± SEM, Day 9: 25.4 ± 0.5 g
  % weight change ± SEM, Day 10: 2.8 ± 2.5%
  Mean weight ± SEM, Day 10: 25.4 ± 0.5 g
  Mean DAI* ± SEM: 2.20 ± 0.26^1
  inhibition at 64 mg/kg: 41%
  % of normal length: 78.5%

## CC[C@@H]1C(C)=NN=C(c2ccc(OC)c(OC)c2)c2cc(OC)c(OC)cc21 [(S)-tofisopam, (S)-1-(3,4-dimethoxyphenyl)-4-methyl-5-ethyl-7,8-dimethoxy-5H-2,3-benzodiazepine]
LTB4 receptor
  Ki: 76 µM
DSS-induced colitis; 16 mg/kg IP daily
  Mean colon length CM ± SEM: 8.4 ± 0.19 CM
  Mean DAI ± SEM: 2.37 ± 0.24
  Mean weight ± SEM, Day 0: 26.0 ± 0.4 g
  % weight change ± SEM, Day 8: 0.0 ± 1.5%
  Mean weight ± SEM, Day 8: 26.0 ± 0.5 g
  % weight change ± SEM, Day 9: 1.5 ± 1.5%
  Mean weight ± SEM, Day 9: 25.6 ± 0.5 g
  % weight change ± SEM, Day 10: 5.4 ± 1.6%
  Mean weight ± SEM, Day 10: 24.6 ± 0.6 g
  Mean DAI* ± SEM: 2.85 ± 0.18
  inhibition at 16 mg/kg: 11%
  % of normal length: 67.3%
DSS-induced colitis; 32 mg/kg IP daily
  Mean colon length CM ± SEM: 8.1 ± 0.19 CM
  Mean DAI ± SEM: 3.07 ± 0.25
  Mean weight ± SEM, Day 0: 25.9 ± 0.4 g
  % weight change ± SEM, Day 8: 3.0 ± 0.6%
  Mean weight ± SEM, Day 8: 25.1 ± 0.6 g
  % weight change ± SEM, Day 9: 4.9 ± 2.4%
  Mean weight ± SEM, Day 9: 24.6 ± 0.6 g
  % weight change ± SEM, Day 10: 10.4 ± 3.2%
  Mean weight ± SEM, Day 10: 23.2 ± 0.9 g
  Mean DAI* ± SEM: 3.60 ± 0.30
  inhibition at 32 mg/kg: 4%
  % of normal length: 64.9%
DSS-induced colitis; 64 mg/kg IP daily
  Mean colon length CM ± SEM: 8.2 ± 0.20 CM
  Mean DAI ± SEM: 2.78 ± 0.27
  Mean weight ± SEM, Day 0: 25.9 ± 0.4 g
  % weight change ± SEM, Day 8: 1.2 ± 1.5%
  Mean weight ± SEM, Day 8: 25.8 ± 0.6 g
  % weight change ± SEM, Day 9: 6.9 ± 1.8%
  Mean weight ± SEM, Day 9: 24.1 ± 0.5 g
  % weight change ± SEM, Day 10: 10.4 ± 1.7%
  Mean weight ± SEM, Day 10: 23.2 ± 0.6 g
  Mean DAI* ± SEM: 2.94 ± 0.24
  inhibition at 64 mg/kg: 7%
  % of normal length: 65.4%
